The subject of data set [1] is liver. The note with it: mouse, in vivo.
Description: Animals. […] Wild type, p53^−/−, INK4a/Arf^−/− and p53^−/−;INK4a/Arf^−/− mice were treated twice a week with 12 consecutive i.p. (intraperitoneal) injections of 1 ml/kg CCl4 to induce liver fibrosis. GFAP-tTA;TRE-shp53 mice were treated similarly for 2 weeks. Animals were sacrificed 48-72 hours after the last injection and their livers used for further analysis. To modify NK cell function, mice were treated three times weekly either i.v. with an anti-Asialo-GM1 antibody (25 μl in 200 μl saline, Wako, Va., USA) for 10 or 20 days or i.p. with polyI:C (Sigma, USA) 1 mg/kg.
Histological analysis. Paraffin embedded tissue sections were stained with hematoxylin-eosin for routine examination, or with Sirius Red for visualization of fibrotic deposition. At least 3 whole sections from each animal were scanned by Laser Scanner Cytometry (CompuCyte, MA) for fibrosis quantification. These images were quantified using NIH ImageJ software (http://rsb.info.nih.gov/ij/). We calculated the amount of fibrotic tissue in diseased animals relatively to the basal amount of Sirius Red staining present in normal liver.
Frozen sections of liver tissue, or adherent cells were fixed with 0.5% Gluteraldehyde in PBS for 15 min, washed with PBS supplemented with 1 mM MgCl2 and stained for 5-6 hrs in PBS containing 1 mM MgCl2, 1 mg/ml X-Gal and 5 mM of each Potassium ferricyanide and Potassium ferrocyanide. Sections were counterstained with Eosin.
To investigate the relationship between fibrosis and cellular senescence, 7-9 week old female mice were subjected to a six week treatment with CCl4, a chemical widely used to induce fibrosis in experimental animals (Bataller and Brenner, 2005, J. Clin. Invest. 115, 209-218, the contents of which are hereby incorporated by reference).
Data set [2] deals with senescent activated HSCs in fibrotic livers. Put plainly: Fibrosis reversion and senescent cell clearance in CCl4 treated mice with modified NK cell function. Type of data set: in vivo, mouse. As to the method: Animals. […] GFAP-tTA mice were obtained from the Jackson Laboratory.
Sections were counterstained with Eosin.
Immunoblotting. Liver tissue was lysed in Laemmli buffer using a tissue homogenizer. Equal amounts of protein were separated on 12% SDS-polyacrylamide gels and transferred to PVDF membranes. Detection was performed using anti-αSMA (DakoCytomation, Denmark), anti-13Actin (AC-15, Sigma, USA).
Expression array analysis and quantitative RT-PCR. […] Affymetrix Human Genome U133 Plus 2.0Array were used to identify genes expressed in HSC.
To determine whether NK cells can target senescent cells in vivo and their impact on liver fibrosis, modulating NK cell function was tested for how it would influence the frequency of senescent activated HSCs and fibrosis resolution in livers obtained from mice following a six week course of CCl4 or at various times after ceasing treatment. To deplete NK cells mice were treated with neutralizing antibodies [anti-AsialoGM1 (Radaeva et al., 2006; Xue et al., 2007)] during the period following CCl4 withdrawal. Conversely, to enhance the immune response, we treated mice with polyinosinic-polycytidylic acid (polyI:C), which induces interferon-γ and enhances NK cell activity in the liver (Radaeva et al., 2006).

For data set [3], the system named is primary human activated HSCs. Nature of the data set: Senescence induction in cultured primary human activated HSCs. Type of data set: cell-based. Particulars: etoposide 100 μM, within several days of treatment.
Data set [4] has as its system senescent IMR-90 cells. Nature of the data set: In vitro killing assay of growing and senescent IMR-90 cells by YT cells (NK cell line). It counts as cell-based, human. Particulars: range of target:effector cell ratios. Here is the method: Tissue culture. Human IMR-90 foetal lung fibroblasts (ATCC) and primary human hepatic myofibroblasts (activated HSCs) (Dominion Pharmakine, Spain) were grown in standard conditions (Narita et al., 2003). Senescence was induced by prolonged culturing, etoposide (100 μM, Sigma, USA) treatment, or infection of IMR-90 cells with oncogenic rasV12 as described (Narita et al., 2003). For in vitro cytotoxicity assays, growing or senescent cells were plated in 6-well plates at 50,000 cells per well. 5×10^5 YT cells (from DSMZ, Germany) were subsequently added to target cells. The plates were incubated under normal conditions for 12 hours, and then NK cell cytotoxicity was determined using crystal violet staining of remaining adherent cells or followed with a Zeiss AxioObserver microscope equipped with 37° C. incubator hood and 6.3% CO2 cover.
To test if a Perforin mediated pathway is involved in senescent cell killing in vitro, the in vitro killing assays of growing and senescent IMR-90 cells were used (the assay is described at Krizhanovsky, V. et al., “Senescence of Activated Stellate Cells Limits Liver Fibrosis,” Cell, 134, 657-667 (Aug. 22, 2008), which is hereby incorporated by reference). Growing and senescent IMR-90 cells were incubated with different amounts of YT cells (NK cell line) in presence or absence of granule exocytosis pathway inhibitor Concanamycin A (CMA). […]

Where [5] appears, read: wild type mice after six week CCl4, treated 10 or 20 days following CCl4 withdrawal, compared to saline controls.

Entries after “also recorded” stand apart in the source; their conditions may differ.

For `ClC(Cl)(Cl)Cl` [CCl4], in data set [1], the “accumulation of senescent cells in livers of treated mice” value is recorded as “accumulated in fibrotic livers”, the “increase in Sirius Red-positive area over untreated controls” value was 3 to 4 fold and the “liver area Sirius Red-positive (quantitative laser scanning cytometry)” value is recorded as “Approximately 2%”. On to “polyinosinic-polycytidylic acid [polyI:C]”, for which the “αSMA mRNA and protein levels in fibrotic livers (activated HSC marker)” value in data set [2] (quantitative RT-PCR and immunoblot, 10 days treatment after CCl4, compared to saline) is “decreased”. Moreover, in data set [2] (setting [5]), the “fibrosis / fibrotic tissue (Sirius Red staining)” value is reported as “less fibrotic tissue; also recorded: depleted more efficiently” and the “senescent cells (SA-β-gal positive) in fibrotic liver” value is on record as “fewer senescent cells; also recorded: enhanced clearance of senescent cells”. Turning to `COc1cc([C@@H]2c3cc4c(cc3[C@@H](O[C@@H]3O[C@@H]5CO[C@@H](C)O[C@H]5[C@H](O)[C@H]3O)[C@H]3COC(=O)[C@H]23)OCO4)cc(OC)c1O` [etoposide], the “senescence of activated HSCs (proliferation stop, SA-β-gal activity, heterochromatic foci)” value in data set [3] is recorded as “undergo senescence”. Turning to “3,5-diethoxycarbonyl-1,4-dihydrocollidine [DDC]”, the “accumulation of senescent cells in livers of treated mice” value in data set [1] is “accumulated”.

Consider `C/C=C/[C@H]1O[C@@](O)([C@@H](C)[C@H](O)[C@H](C)[C@H]2OC(=O)/C(OC)=C/C(C)=C/[C@@H](C)[C@@H](O)[C@@H](CC)[C@@H](O)[C@H](C)C/C(C)=C/C=C/[C@@H]2OC)C[C@@H](O[C@H]2C[C@@H](O)[C@H](OC(N)=O)[C@@H](C)O2)[C@@H]1C` [CMA, Concanamycin A], for which the “preferential killing of senescent cells by NK cells (YT) in presence of inhibitor” value in data set [4] is on record as “significantly inhibited”.
